How the values were obtained:
Type in all cases: biochemical
FXIIa = target: T1, FXIIa (Homo sapiens, UniProt P00748); assay: Determination of Factor XIIa inhibition, chromogenic substrate S-2302 assay; details: human FXIIa alpha
T1 sequence (P00748 373-615 limits assumed): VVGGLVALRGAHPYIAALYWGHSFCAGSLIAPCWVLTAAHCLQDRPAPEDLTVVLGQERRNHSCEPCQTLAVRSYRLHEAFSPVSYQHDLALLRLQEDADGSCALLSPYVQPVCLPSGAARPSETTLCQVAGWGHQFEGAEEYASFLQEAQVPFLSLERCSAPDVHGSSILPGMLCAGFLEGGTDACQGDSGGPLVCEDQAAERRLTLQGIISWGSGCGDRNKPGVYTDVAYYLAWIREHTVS
T1 sequence (P00748 20-372 partner limits assumed): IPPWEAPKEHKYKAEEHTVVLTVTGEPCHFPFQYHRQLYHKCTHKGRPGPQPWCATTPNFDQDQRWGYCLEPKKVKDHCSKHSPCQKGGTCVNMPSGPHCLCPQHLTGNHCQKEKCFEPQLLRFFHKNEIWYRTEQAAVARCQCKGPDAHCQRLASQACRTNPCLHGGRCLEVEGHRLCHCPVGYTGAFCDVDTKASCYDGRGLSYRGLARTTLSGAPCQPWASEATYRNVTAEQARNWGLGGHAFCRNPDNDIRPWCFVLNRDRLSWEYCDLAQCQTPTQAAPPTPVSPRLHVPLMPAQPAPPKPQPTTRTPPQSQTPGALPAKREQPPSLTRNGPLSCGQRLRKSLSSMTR
How it was run: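 FXIIa (10 nM) preincubated with compound 10 min at 37° C. in 50 mM Tris, 137 mM NaCl pH 7.4, 5% DMSO, top concentration 500 μM, then S-2302 added ([…]). Absorbance at 405 nm read kinetically for 3 h; IC50 from initial rates, converted to Ki by Cheng-Prusoff.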

thrombin = target: T2, thrombin (Homo sapiens, UniProt P00734); assay: Determination of selectivity: thrombin inhibition, chromogenic substrate GPR assay; details: fold selectivity for FXIIa over thrombin
T2 construct: FXa (5 nM) and thrombin (5 nM)
How it was run: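 Thrombin (5 nM) preincubated with compound 10 min at 37 °C in 50 mM Tris, 137 mM NaCl, pH 7.4, 5% DMSO, then GPR substrate ([…]) added. Absorbance at 405 nm read kinetically for 3 h; IC50 from initial rates, converted to Ki via Ki=IC50/(1+[S]/Km).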

FXa = FXa (Homo sapiens, UniProt P00742); assay: Determination of selectivity: FXa inhibition, chromogenic substrate S2765 assay; details: fold selectivity for FXIIa over FXa
Sequence of FXa (P00742 235-488 limits assumed): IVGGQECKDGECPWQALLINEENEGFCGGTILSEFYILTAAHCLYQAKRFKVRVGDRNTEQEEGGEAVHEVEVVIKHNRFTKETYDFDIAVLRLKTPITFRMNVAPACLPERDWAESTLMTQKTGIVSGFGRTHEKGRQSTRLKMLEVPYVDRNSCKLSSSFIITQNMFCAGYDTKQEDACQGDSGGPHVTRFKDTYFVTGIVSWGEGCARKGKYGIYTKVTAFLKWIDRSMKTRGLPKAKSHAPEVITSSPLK
Sequence of FXa (P00742 41-179 partner limits assumed): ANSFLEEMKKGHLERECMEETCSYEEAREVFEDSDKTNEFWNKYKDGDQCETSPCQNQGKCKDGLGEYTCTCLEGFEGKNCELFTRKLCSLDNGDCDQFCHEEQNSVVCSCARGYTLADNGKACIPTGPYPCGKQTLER
How it was run: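 Human FXa (5 nM) preincubated with compound (top 500 μM, 5% DMSO) 10 min at 37 °C in 50 mM Tris, 137 mM NaCl pH 7.4, then S2765 ([…]) added; A405 kinetics over 3 h at 37 °C. IC50 from initial rates, converted to Ki via Cheng-Prusoff.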

SMILES	Ki (FXIIa)	FXa (human)/FXIIa alpha (human) (FXa)	Thrombin (human)/FXIIa alpha (human) (thrombin)
Cn1nnc2cc(CNC(=O)[C@@H]3C[C@H](NC4CCCCC4)CN3C(=O)[C@H](N)CCc3ccccc3)ccc21 [Example M05203]	> 2000 nM	∘∘	++ (fold selectivity value of 10 to 100)
Nc1nccc2cc(CNC(=O)[C@@H]3C[C@H](C(F)(F)F)CN3C(=O)[C@H](N)CCC(=O)N3CCCC3)ccc12 [Example M05265]	200 to 2000 nM	∘	+ (fold selectivity values less than 10)
Cn1nnc2cc(CNC(=O)[C@@H]3C[C@@H](Cc4ccncc4)CN3C(=O)[C@@H](CCC(=O)N3CCCC3)NS(=O)(=O)c3ccccc3)ccc21 [Example M05290]	> 2000 nM	∘∘	+++ (fold selectivity values greater than 100)
COc1ccc(C[C@@H]2C[C@@H](C(=O)NCc3ccc4c(c3)c(C)nn4C)N(C(=O)[C@H](N)CCC(=O)N3CCCC3)C2)cc1 [Example M05447]	200 to 2000 nM	∘∘∘	+++ (fold selectivity values greater than 100)
COc1ccc(C[C@@H]2C[C@@H](C(=O)NCc3ccc4c(c3)nnn4C)N(C(=O)[C@H]3CC(c4ccc(Cl)cc4)CN3)C2)cc1 (stereo partly drawn) [Example M05346]	> 2000 nM	∘∘	++ (fold selectivity value of 10 to 100)
Cc1nn(C)c2ccc(CNC(=O)[C@@H]3C[C@@H](Cc4ccncc4)CN3C(=O)[C@H](N)CCC(=O)N3CCCC3)cc12 [Example M05278]	200 to 2000 nM	∘∘∘	++ (fold selectivity value of 10 to 100)
COc1ccc(C[C@@H]2C[C@@H](C(=O)NCc3ccc4c(c3)nnn4C)N(C(=O)[C@H](N)CCC(=O)N3C4CCC3CNC4)C2)cc1 [Example M05420]	< 200 nM	∘∘∘	+++ (fold selectivity values greater than 100)
COc1ccc(C[C@@H]2C[C@@H](C(=O)NCc3cc4cnccc4o3)N(C(=O)[C@H](N)CCC(=O)N3CCCC3)C2)cc1 [Example M05404]	< 200 nM	∘∘∘	+++ (fold selectivity values greater than 100)
COc1ccc(C[C@@H]2C[C@@H](C(=O)NCc3ccc4c(c3)nnn4C)N(C(=O)[C@H](N)CCC(=O)N3CCNC[C@@H]3C)C2)cc1 [Example M05417, (2S,4R)-1-[(R)-2-amino-5-((S)-2-methyl-piperazin-1-yl)-5-oxo-pentanoyl]-4-(4-methoxy-benzyl)-pyrrolidine-2-carboxylic acid (1-methyl-1H-benzotriazol-5-ylmethyl)-amide]	200 to 2000 nM	∘∘∘	+++ (fold selectivity values greater than 100)

Further lines, with some results ahead:

Ki (FXIIa)	FXa (human)/FXIIa alpha (human) (FXa)	SMILES	Thrombin (human)/FXIIa alpha (human) (thrombin)
< 200 nM	∘∘∘	COc1ccc(C[C@@H]2C[C@@H](C(=O)NCc3cc4cnccc4[nH]3)N(C(=O)[C@H]3C[C@@H](c4cnn(C)c4)CN3)C2)cc1 [Example M00959]	+++ (fold selectivity values greater than 100)
< 200 nM	∘∘∘	COc1ccc(C[C@@H]2C[C@@H](C(=O)NCc3cc4ccncc4[nH]3)N(C(=O)[C@H](N)CCc3ccccc3)C2)cc1 [Example M00954]	+ (fold selectivity values less than 10)
< 200 nM	∘∘∘	COc1ccc(C[C@@H]2C[C@@H](C(=O)NCc3cc4cnccc4[nH]3)N(C(=O)C3NCCc4cc(OC)ccc43)C2)cc1 (single isomer, unassigned) [Example M00963]	+++ (fold selectivity values greater than 100)
< 200 nM	∘∘∘	COc1ccc(C[C@@H]2C[C@@H](C(=O)NCc3ccc4c(c3)nnn4C)N(C(=O)[C@H](N)CCC(=O)N3CCC[C@H]3C#N)C2)cc1 [Example M05402]	+++ (fold selectivity values greater than 100)
